According to publication PMC12517324, “Hyperagonism of a Vitamin D Receptor Agonist/Histone Deacetylase Inhibitor Hybrid Molecule” (Journal of Medicinal Chemistry, 2025):

Biological target: T1, HDAC6 (Homo sapiens, UniProt Q9UBN7)
T1 sequence (Q9UBN7 1-1215): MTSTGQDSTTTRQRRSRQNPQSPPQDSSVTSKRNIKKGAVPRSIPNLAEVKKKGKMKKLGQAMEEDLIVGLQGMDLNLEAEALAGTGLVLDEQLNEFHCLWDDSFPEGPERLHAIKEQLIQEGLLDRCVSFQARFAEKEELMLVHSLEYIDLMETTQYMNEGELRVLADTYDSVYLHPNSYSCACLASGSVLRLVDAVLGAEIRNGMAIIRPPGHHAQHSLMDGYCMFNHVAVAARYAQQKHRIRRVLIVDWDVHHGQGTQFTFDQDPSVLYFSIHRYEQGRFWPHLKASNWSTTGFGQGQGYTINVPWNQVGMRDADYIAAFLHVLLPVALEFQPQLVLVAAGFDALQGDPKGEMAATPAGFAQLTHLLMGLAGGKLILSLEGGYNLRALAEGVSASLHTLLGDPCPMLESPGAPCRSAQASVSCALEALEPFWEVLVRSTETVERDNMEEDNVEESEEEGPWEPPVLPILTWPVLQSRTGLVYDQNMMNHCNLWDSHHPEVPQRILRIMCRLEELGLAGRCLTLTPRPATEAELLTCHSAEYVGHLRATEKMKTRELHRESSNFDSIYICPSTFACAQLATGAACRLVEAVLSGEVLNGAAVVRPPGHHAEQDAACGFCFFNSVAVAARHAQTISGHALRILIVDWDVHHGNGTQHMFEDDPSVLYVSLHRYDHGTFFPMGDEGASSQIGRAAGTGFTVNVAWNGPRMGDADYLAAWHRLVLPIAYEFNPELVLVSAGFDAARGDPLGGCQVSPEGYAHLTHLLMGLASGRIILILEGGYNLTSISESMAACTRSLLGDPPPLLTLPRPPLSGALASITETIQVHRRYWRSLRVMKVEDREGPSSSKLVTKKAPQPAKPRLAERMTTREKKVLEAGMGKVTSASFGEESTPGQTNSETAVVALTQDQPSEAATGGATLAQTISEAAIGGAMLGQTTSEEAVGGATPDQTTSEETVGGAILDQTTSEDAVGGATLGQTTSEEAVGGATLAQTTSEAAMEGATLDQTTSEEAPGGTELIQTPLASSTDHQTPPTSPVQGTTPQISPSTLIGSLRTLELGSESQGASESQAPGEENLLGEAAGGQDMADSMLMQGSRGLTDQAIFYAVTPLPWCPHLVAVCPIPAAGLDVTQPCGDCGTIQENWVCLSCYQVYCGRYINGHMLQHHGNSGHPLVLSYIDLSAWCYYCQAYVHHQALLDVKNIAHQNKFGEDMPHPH
Assay: Inhibition of purified HDAC6, Boc-Lys(Ac)-AMC substrate
Format: biochemical
Set-up: purchased Cayman Chemical
Details: 1 h 37 °C

IC50: 3.09 µM
Structure (SMILES): CCC(CC)(c1ccc(OCCCCCC(=O)NO)cc1)c1ccc(OCC(O)C(C)(C)C)c(C)n1 (stereo not shown) [AM-193]
